According to the NIST ThermoML archive (doi:10.1016/j.tca.2014.05.028):

Assay: xn = mol fraction of the nth substance listed
Conditions: 101 kPa, Liquid; for viscosity: Falling or rolling sphere viscometry; for mass density: Vibrating tube method

CCCCC[N+]1(C)CCCC1.[Br-] [1-methyl-1-pentylpyrrolidinium bromide] + O
Conditions | mass density [kg/m3] | viscosity [mPa·s]
298.15 K, x1 = 0.0313 | 1054.87 | 1.987
298.15 K, x1 = 0.0592 | 1089.64 | 3.402
298.15 K, x1 = 0.0944 | 1119.19 | 6.013
298.15 K, x1 = 0.1301 | 1139.59 | 10.08
298.15 K, x1 = 0.1566 | 1150.73 | 14.2
298.15 K, x1 = 0.1964 | 1163.63 | 22.59
298.15 K, x1 = 0.2468 | 1175.13 | 38.27
298.15 K, x1 = 0.3028 | 1184.58 | 66.43
298.15 K, x1 = 0.3503 | 1190.28 | 102.55
298.15 K, x1 = 0.4097 | 1195.59 | 175.43
298.15 K, x1 = 0.445 | 1198.37 | 241.18
298.15 K, x1 = 1 | 1188.96 | –
303.15 K, x1 = 0.0313 | 1052.43 | 1.728
303.15 K, x1 = 0.0592 | 1086.59 | 2.903
303.15 K, x1 = 0.0944 | 1115.78 | 5.036
303.15 K, x1 = 0.1301 | 1136.1 | 8.404
303.15 K, x1 = 0.1566 | 1147.25 | 11.61
303.15 K, x1 = 0.1964 | 1160.15 | 18.05
303.15 K, x1 = 0.2468 | 1171.69 | 29.76
303.15 K, x1 = 0.3028 | 1181.21 | 50.36
303.15 K, x1 = 0.3503 | 1186.96 | 76.83
303.15 K, x1 = 0.4097 | 1192.35 | 128.64
303.15 K, x1 = 0.445 | 1195.15 | 173.72
303.15 K, x1 = 1 | 1185.14 | –
308.15 K, x1 = 0.0313 | 1049.86 | 1.469
308.15 K, x1 = 0.0592 | 1083.44 | 2.433
308.15 K, x1 = 0.0944 | 1112.34 | 4.142
308.15 K, x1 = 0.1301 | 1132.57 | 6.871
308.15 K, x1 = 0.1566 | 1143.72 | 9.343
308.15 K, x1 = 0.1964 | 1156.64 | 14.22
308.15 K, x1 = 0.2468 | 1168.24 | 22.83
308.15 K, x1 = 0.3028 | 1177.83 | 37.83
308.15 K, x1 = 0.3503 | 1183.64 | 56.94
308.15 K, x1 = 0.4097 | 1189.09 | 93.53
308.15 K, x1 = 0.445 | 1191.92 | 124.68
308.15 K, x1 = 1 | 1181.35 | –
313.15 K, x1 = 0.0313 | 1047.17 | 1.288
313.15 K, x1 = 0.0592 | 1080.23 | 2.104
313.15 K, x1 = 0.0944 | 1108.85 | 3.523
313.15 K, x1 = 0.1301 | 1129.01 | 5.794
313.15 K, x1 = 0.1566 | 1140.17 | 7.793
313.15 K, x1 = 0.1964 | 1153.12 | 11.62
313.15 K, x1 = 0.2468 | 1164.79 | 18.25
313.15 K, x1 = 0.3028 | 1174.44 | 29.54
313.15 K, x1 = 0.3503 | 1180.31 | 43.93
313.15 K, x1 = 0.4097 | 1185.82 | 70.78
313.15 K, x1 = 0.445 | 1188.67 | 94.43
313.15 K, x1 = 1 | 1177.58 | –
318.15 K, x1 = 0.0313 | 1044.36 | 1.152
318.15 K, x1 = 0.0592 | 1076.94 | 1.849
318.15 K, x1 = 0.0944 | 1105.32 | 3.055
318.15 K, x1 = 0.1301 | 1125.43 | 4.98
318.15 K, x1 = 0.1566 | 1136.58 | 6.632
318.15 K, x1 = 0.1964 | 1149.57 | 9.734
318.15 K, x1 = 0.2468 | 1161.33 | 14.99
318.15 K, x1 = 0.3028 | 1171.04 | 23.75
318.15 K, x1 = 0.3503 | 1176.97 | 35.02
318.15 K, x1 = 0.4097 | 1182.56 | 55.19
318.15 K, x1 = 0.445 | 1185.43 | 73.04
318.15 K, x1 = 1 | 1173.84 | –
323.15 K, x1 = 0.0313 | 1041.42 | 1.018
323.15 K, x1 = 0.0592 | 1073.59 | 1.61
323.15 K, x1 = 0.0944 | 1101.75 | 2.62
323.15 K, x1 = 0.1301 | 1121.81 | 4.239
323.15 K, x1 = 0.1566 | 1132.97 | 5.594
323.15 K, x1 = 0.1964 | 1146.01 | 8.098
323.15 K, x1 = 0.2468 | 1157.86 | 12.24
323.15 K, x1 = 0.3028 | 1167.63 | 19.02
323.15 K, x1 = 0.3503 | 1173.62 | 27.61
323.15 K, x1 = 0.4097 | 1179.3 | 43.02
323.15 K, x1 = 0.445 | 1182.19 | 56.06
323.15 K, x1 = 1 | 1170.12 | –
328.15 K, x1 = 0.0313 | 1038.21 | 0.901
328.15 K, x1 = 0.0592 | 1070.18 | 1.406
328.15 K, x1 = 0.0944 | 1098.14 | 2.253
328.15 K, x1 = 0.1301 | 1118.16 | 3.594
328.15 K, x1 = 0.1566 | 1129.34 | 4.737
328.15 K, x1 = 0.1964 | 1142.42 | 6.779
328.15 K, x1 = 0.2468 | 1154.37 | 10.1
328.15 K, x1 = 0.3028 | 1164.2 | 15.38
328.15 K, x1 = 0.3503 | 1170.27 | 22.07
328.15 K, x1 = 0.4097 | 1176.04 | 33.82
328.15 K, x1 = 0.445 | 1178.95 | 43.84
328.15 K, x1 = 1 | 1166.42 | –
333.15 K, x1 = 0.0313 | 1034.52 | 0.806
333.15 K, x1 = 0.0592 | 1066.7 | 1.238
333.15 K, x1 = 0.0944 | 1094.49 | 1.961
333.15 K, x1 = 0.1301 | 1114.49 | 3.084
333.15 K, x1 = 0.1566 | 1125.68 | 4.048
333.15 K, x1 = 0.1964 | 1138.81 | 5.734
333.15 K, x1 = 0.2468 | 1150.85 | 8.449
333.15 K, x1 = 0.3028 | 1160.77 | 12.68
333.15 K, x1 = 0.3503 | 1166.91 | 18.16
333.15 K, x1 = 0.4097 | 1172.78 | 27.16
333.15 K, x1 = 0.445 | 1175.7 | 35.05
333.15 K, x1 = 1 | 1162.75 | –
338.15 K, x1 = 0.0313 | 1031.9 | 0.735
338.15 K, x1 = 0.0592 | 1063.16 | 1.117
338.15 K, x1 = 0.0944 | 1090.8 | 1.75
338.15 K, x1 = 0.1301 | 1110.78 | 2.707
338.15 K, x1 = 0.1566 | 1121.99 | 3.551
338.15 K, x1 = 0.1964 | 1135.18 | 4.983
338.15 K, x1 = 0.2468 | 1147.32 | 7.259
338.15 K, x1 = 0.3028 | 1157.32 | 10.76
338.15 K, x1 = 0.3503 | 1163.54 | 15.24
338.15 K, x1 = 0.4097 | 1169.46 | 22.53
338.15 K, x1 = 0.445 | 1172.45 | 28.48
338.15 K, x1 = 1 | 1159.1 | –
343.15 K, x1 = 0.0313 | 1026.38 | 0.661
343.15 K, x1 = 0.0592 | 1059.56 | 0.991
343.15 K, x1 = 0.0944 | 1087.07 | 1.532
343.15 K, x1 = 0.1301 | 1107.04 | 2.328
343.15 K, x1 = 0.1566 | 1118.28 | 3.039
343.15 K, x1 = 0.1964 | 1131.53 | 4.253
343.15 K, x1 = 0.2468 | 1143.76 | 6.138
343.15 K, x1 = 0.3028 | 1153.87 | 9.006
343.15 K, x1 = 0.3503 | 1160.16 | 12.52
343.15 K, x1 = 0.4097 | 1166.21 | 18.43
343.15 K, x1 = 0.445 | 1169.19 | 22.9
343.15 K, x1 = 1 | 1155.48 | –
